Square brackets hold non-standard residues; d marks the D form. Ends that are not written are not given here. Peptide text beside a SMILES is read from it. * marks the point of attachment. hArg = N=C(N)NCCCC[C@H](N)C(=O)O; Octanoyl = CCCCCCCC(=O)*
Tested on: P. gingivalis
Assay: Anaerobic antimicrobial susceptibility test (NCCLS M11-T2), P. gingivalis
Format: cell-based
Details: strain W50, BHI broth, 24-48 hours
In the case of `CC[C@H](C)[C@H](NC(=O)[C@H](CCCCNC(=N)N)NC(=O)CNC(=O)[C@H](C)NC(=O)[C@@H](NC(=O)[C@H](CCCCNC(=N)N)NC(=O)[C@H](C)NC(=O)[C@@H](NC(=O)[C@H](CCCCNC(=N)N)NC(=O)CNC(=O)[C@H](C)NC(=O)[C@@H](NC(=O)[C@H](CCCCNC(=N)N)NC(=O)[C@H](C)NC(=O)[C@@H](NC(=O)[C@H](CCCCNC(=N)N)NC(=O)CNC(=O)[C@H](C)NC(=O)[C@@H](NC(=O)[C@@H](N)CCCCNC(=N)N)[C@@H](C)CC)[C@@H](C)CC)[C@@H](C)CC)[C@@H](C)CC)[C@@H](C)CC)C(=O)N[C@@H](C)C(N)=O` [(SEQ ID NO: 66)-NH2] (H-[hArg]IAG[hArg]IA[hArg]IAG[hArg]IA[hArg]IAG[hArg]IA-NH2), the “MIC P. gingivalis (strain) W50” value is reported as 4 μl/ml. In the case of `CCCCCCCC(=O)N[C@@H](CCCCN)C(=O)N[C@H](C(=O)N[C@@H](C)C(=O)NCC(=O)N[C@@H](CCCCN)C(=O)N[C@H](C(=O)N[C@@H](C)C(=O)N[C@@H](CCCCN)C(=O)N[C@H](C(=O)N[C@@H](C)C(=O)NCC(=O)N[C@@H](CCCCN)C(=O)N[C@H](C(=O)N[C@@H](C)C(=O)N[C@@H](CCCCN)C(=O)N[C@H](C(=O)N[C@@H](C)C(=O)NCC(=O)N[C@@H](CCCCN)C(=O)N[C@H](C(=O)N[C@@H](C)C(N)=O)[C@@H](C)CC)[C@@H](C)CC)[C@@H](C)CC)[C@@H](C)CC)[C@@H](C)CC)[C@@H](C)CC` [Oct-(SEQ ID NO: 27)-NH2] (Octanoyl-KIAGKIAKIAGKIAKIAGKIA-NH2), the “MIC P. gingivalis (strain) W50” value is reported as 16 μl/ml. With `CCCCCCCC(=O)N[C@@H](CCCCN)C(=O)N[C@H](C(=O)N[C@@H](C)C(=O)NCC(=O)N[C@@H](CCCCN)C(=O)N[C@H](C(=O)N[C@@H](C)C(=O)N[C@@H](CCCCN)C(=O)N[C@H](C(=O)N[C@@H](C)C(=O)NCC(=O)N[C@@H](CCCCN)C(=O)N[C@H](C(=O)N[C@@H](C)C(=O)N[C@@H](CCCCN)C(=O)N[C@H](C(=O)N[C@@H](C)C(=O)NCC(=O)N[C@@H](CCCCN)C(=O)N[C@H](C(=O)N[C@@H](C)C(=O)O)[C@@H](C)CC)[C@@H](C)CC)[C@@H](C)CC)[C@@H](C)CC)[C@@H](C)CC)[C@@H](C)CC` [Oct-(SEQ ID NO: 27)-OH] (Octanoyl-KIAGKIAKIAGKIAKIAGKIA-OH) the “MIC P. gingivalis (strain) W50” value was 1 μl/ml. In the case of `CCCCCCCC(=O)N[C@@H](CCCCNC(=N)N)C(=O)N[C@H](C(=O)N[C@@H](C)C(=O)NCC(=O)N[C@@H](CCCCNC(=N)N)C(=O)N[C@H](C(=O)N[C@@H](C)C(=O)N[C@@H](CCCCNC(=N)N)C(=O)N[C@H](C(=O)N[C@@H](C)C(=O)NCC(=O)N[C@@H](CCCCNC(=N)N)C(=O)N[C@H](C(=O)N[C@@H](C)C(=O)N[C@@H](CCCCNC(=N)N)C(=O)N[C@H](C(=O)N[C@@H](C)C(=O)NCC(=O)N[C@@H](CCCCNC(=N)N)C(=O)N[C@H](C(=O)N[C@@H](C)C(N)=O)[C@@H](C)CC)[C@@H](C)CC)[C@@H](C)CC)[C@@H](C)CC)[C@@H](C)CC)[C@@H](C)CC` [Oct-(SEQ ID NO: 66)-NH2] (Octanoyl-[hArg]IAG[hArg]IA[hArg]IAG[hArg]IA[hArg]IAG[hArg]IA-NH2), the “MIC P. gingivalis (strain) W50” value is reported as 2 μl/ml. With `CCCCCCCC(=O)N[C@@H](CCCCN)C(=O)N[C@H](C(=O)N[C@@H](C)C(=O)N[C@@H](CCCCN)C(=O)N[C@@H](CCCCN)C(=O)N[C@H](C(=O)N[C@@H](C)C(=O)N[C@@H](CCCCN)C(=O)N[C@H](C(=O)N[C@@H](C)C(=O)N[C@@H](CCCCN)C(=O)N[C@@H](CCCCN)C(=O)N[C@H](C(=O)N[C@@H](C)C(=O)N[C@@H](CCCCN)C(=O)N[C@H](C(=O)N[C@@H](C)C(=O)N[C@@H](CCCCN)C(=O)N[C@@H](CCCCN)C(=O)N[C@H](C(=O)N[C@@H](C)C(=O)O)[C@@H](C)CC)[C@@H](C)CC)[C@@H](C)CC)[C@@H](C)CC)[C@@H](C)CC)[C@@H](C)CC` [Oct-(SEQ ID NO: 86)-OH] (Octanoyl-KIAKKIAKIAKKIAKIAKKIA-OH) the “MIC P. gingivalis (strain) W50” value was 1 μl/ml. In the case of “KIAGKIAKIAGKIAKIAGKIA-NH2 [(SEQ ID NO: 27)-NH2]”, the “MIC P. gingivalis (strain) W50” value is reported as 4 μl/ml.

Target: not listed separately
Assay: Inhibition of lipopolysaccharide binding to dye (LPS50)
Design: species or system E. coli
Details: concentration of peptide necessary to inhibit the binding of 50% of the lipopolysaccharide to the dye; absorbance at 460 nm and 510 nm
Protocol: A stock solution (10×) of 0.6 mM dye is prepared by adding 1.68 mg of (1-ethyl-2-(3-[1-ethylnaphthol(1,2-d)- thiazolin-2-ylidene]-2-methylpropenyl)naphtho-(1,2-d)-thiazolium bromide (Signa E-7762) to 5 ml of 200 proof ethanol. 1 ml of this solution was added to 9 ml ethanol to give 0.06 mM of dye (60 μM dye).
A stock solution of lipopolysaccharide (LPS) from E. coli serotype 0111:B4 was prepared at 1.5 mg/ml. 400 μl of this solution was mixed with 4.6 ml pyrogen free water to give a 120 μg/ml solution.
Row 1 and rows 3 through 12 of a microtiter plate were filled with 100 μl of pyrogen free water or with 10 mg/ml of bovine serum albumin. 200 μl of peptide then is added to row 2 of the microtiter plate at a concentration of […]. 200 μl of pyrogen free water is added to each of the control wells in two lanes (having dye and LPS but no peptide or having dye and no LPS and no peptide). 100 μl then is serially diluted from row 2 through row 12 of the microtiter plate. 50 μl of PBS (pH 7.4) and 50 μl of the LPS solution then are added to row 1 of the plate (blank wells).
Equal volumes of the LPS solution, the dye, and PBS (pH 7.4, approx. 150 mM) are mixed to form a dye-buffer--LPS mixture having LPS at a final concentration of 40 μg/mi and dye at a final concentration of 20 μM. The dye-buffer LPS mixture then is incubated for 10 minutes at room temperature in the dark.
The plate is incubated for 10 minutes at room temperature in the dark, and the absorbance at 460 nm and 510 nm is read. From these absorbances, the LPS50 value, which is the concentration in mg/ml of peptide necessary to inhibit the binding of 50% of the lipopolysaccharide to the dye, is calculated.
`CCCCCCCC(=O)N[C@@H](CC(C)C)C(=O)N[C@@H](CCCCN)C(=O)N[C@@H](CCCCN)C(=O)N[C@@H](CC(C)C)C(=O)N[C@@H](CCCCN)C(=O)N[C@@H](CCCCN)C(=O)N[C@@H](CC(C)C)C(N)=O` [Oct-(SEQ ID NO: 106)-NH2] (Octanoyl-LKKLKKL-NH2) showed an LPS50 of 6.80 µg/mL. Work on `CCCCCCCC(=O)N[C@@H](CC(C)C)C(=O)N[C@@H](CC(C)C)C(=O)N[C@@H](CCCCN)C(=O)N[C@@H](CCCCN)C(=O)N[C@@H](CC(C)C)C(=O)N[C@@H](CCCCN)C(=O)N[C@@H](CCCCN)C(=O)N[C@@H](CC(C)C)C(N)=O` [Oct-(SEQ ID NO: 107)-NH2] (Octanoyl-LLKKLKKL-NH2) yielded an LPS50 of 15.00 µg/mL. In the case of `CCCCCCCC(=O)N[C@@H](CCCCN)C(=O)N[C@@H](CCCCN)C(=O)N[C@@H](CC(C)C)C(=O)N[C@@H](CC(C)C)C(=O)N[C@@H](CCCCN)C(=O)N[C@@H](CCCCN)C(=O)N[C@@H](CC(C)C)C(=O)N[C@@H](CCCCN)C(=O)N[C@@H](CCCCN)C(=O)N[C@@H](CC(C)C)C(N)=O` [Oct-(SEQ ID NO: 109)-NH2] (Octanoyl-KKLLKKLKKL-NH2), the LPS50 is reported as 0.60 µg/mL. For `CCCCCCCC(=O)N[C@@H](CC(C)C)C(=O)N[C@@H](CCCCN)C(=O)N[C@@H](CCCCN)C(=O)N[C@@H](CC(C)C)C(=O)N[C@@H](CC(C)C)C(=O)N[C@@H](CCCCN)C(=O)N[C@@H](CCCCN)C(=O)N[C@@H](CC(C)C)C(=O)N[C@@H](CCCCN)C(=O)N[C@@H](CCCCN)C(=O)N[C@@H](CC(C)C)C(N)=O` [Oct-(SEQ ID NO: 110)-NH2] (Octanoyl-LKKLLKKLKKL-NH2), the LPS50 was 0.84 µg/mL. With `CCCCCCCC(=O)N[C@@H](C)C(=O)N[C@@H](CCCCN)C(=O)N[C@@H](CCCCN)C(=O)N[C@@H](CC(C)C)C(=O)N[C@@H](CC(C)C)C(=O)N[C@@H](CCCCN)C(=O)N[C@@H](CCCCN)C(=O)N[C@@H](CC(C)C)C(=O)N[C@@H](CCCCN)C(=O)N[C@@H](CCCCN)C(=O)N[C@@H](CC(C)C)C(N)=O` [Oct-(SEQ ID NO: 111)-NH2] (Octanoyl-AKKLLKKLKKL-NH2) the LPS50 was 1.00 µg/mL. With `CCCCCCCC(=O)N[C@@H](CCCCN)C(=O)N[C@@H](Cc1ccccc1)C(=O)N[C@@H](C)C(=O)N[C@@H](CCCCN)C(=O)N[C@@H](Cc1ccccc1)C(=O)N[C@@H](C)C(=O)N[C@@H](CCCCN)C(=O)N[C@@H](CCCCN)C(=O)N[C@@H](Cc1ccccc1)C(=O)N[C@@H](C)C(N)=O` [Oct-(SEQ ID NO: 121)-NH2] (Octanoyl-KFAKFAKKFA-NH2) the LPS50 was 20.00 µg/mL. With `CCCCCCCC(=O)N[C@@H](CCCCN)C(=O)N[C@@H](CCCCN)C(=O)N[C@@H](CC(C)C)C(=O)N[C@@H](C)C(=O)N[C@@H](CCCCN)C(=O)N[C@@H](CC(C)C)C(=O)N[C@@H](C)C(=O)N[C@@H](CCCCN)C(=O)N[C@@H](CCCCN)C(=O)N[C@@H](CC(C)C)C(=O)N[C@@H](C)C(N)=O` [Oct-(SEQ ID NO: 123)-NH2] (Octanoyl-KKLAKLAKKLA-NH2) the LPS50 was 1.70 µg/mL. `CCCCCCCC(=O)N[C@@H](CC(C)C)C(=O)N[C@@H](CCCCN)C(=O)N[C@@H](CCCCN)C(=O)N[C@@H](CC(C)C)C(=O)N[C@@H](CC(C)C)C(=O)N[C@@H](CCCCN)C(=O)N[C@@H](CCCCN)C(N)=O` [Oct-(SEQ ID NO: 137)-NH2] (Octanoyl-LKKLLKK-NH2) showed an LPS50 of 4.80 µg/mL. `CCCCCCCC(=O)N[C@@H](CC(C)C)C(=O)N[C@@H](CCCCN)C(=O)N[C@@H](CCCCN)C(=O)N[C@@H](CC(C)C)C(=O)N[C@@H](CC(C)C)C(=O)N[C@@H](CCCCN)C(=O)N[C@@H](CC(C)C)C(=O)N[C@@H](CC(C)C)C(=O)N[C@@H](CCCCN)C(N)=O` [Oct-(SEQ ID NO: 138)-NH2] (Octanoyl-LKKLLKLLK-NH2) showed an LPS50 of 1.00 µg/mL. Compound `CCCCCCCC(=O)N[C@H](CC(C)C)C(=O)N[C@H](CCCCN)C(=O)N[C@H](CCCCN)C(=O)N[C@H](CC(C)C)C(=O)N[C@H](CC(C)C)C(=O)N[C@H](CCCCN)C(=O)N[C@H](CCCCN)C(=O)N[C@H](CC(C)C)C(=O)N[C@H](CCCCN)C(=O)N[C@H](CCCCN)C(=O)N[C@H](CC(C)C)C(N)=O` [Oct-D-(SEQ ID NO: 110)-NH2] (Octanoyl-[dL][dK][dK][dL][dL][dK][dK][dL][dK][dK][dL]-NH2) has an LPS50 of 0.97 µg/mL. “Oct-D-(SEQ ID NO:110)-NH2 -melibionic acid: Oct-D-(SEQ ID NO:110)-NH2 with melibionic acid, not further explained (Octanoyl-LKKLLKKLKKL-NH2; not fully specified (some residues); also: melibionic acid, not further explained)” showed an LPS50 of 45.00 µg/mL.

Source: patent publication US5654274A, “Biologically active peptides having N-terminal substitutions” (priority 1995, dated 1997)
